Source: patent US7049342B2, “Substituted phenylpropionic acid derivatives” (Kyorin Pharmaceutical Co., Ltd., priority 2000, dated 2006)

Tests used:
[1] = target: T1, human type PPARα (Homo sapiens, UniProt Q07869); experiment: Test of transcriptional activation on peroxisome proliferator-activated receptor α; format: cell-based; details: CHO cells cotransfected with yeast DNA-binding domain/human PPARα ligand-binding domain fusion receptor plasmid, reporter plasmid and Renilla luciferase internal standard; luciferase measured after 24 hours; read-out: Transcription-activating function EC50
T1 construct: expressed in transfected cells; host or cells: CHO cells
T1 sequence (Q07869 239-466 limits assumed): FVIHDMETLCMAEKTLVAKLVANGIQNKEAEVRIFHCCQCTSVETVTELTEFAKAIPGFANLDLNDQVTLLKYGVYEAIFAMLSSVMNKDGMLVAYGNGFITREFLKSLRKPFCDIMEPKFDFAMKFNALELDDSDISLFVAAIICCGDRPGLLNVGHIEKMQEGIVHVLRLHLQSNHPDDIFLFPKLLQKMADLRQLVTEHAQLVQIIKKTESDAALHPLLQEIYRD
Text: Test of Transcriptional Activation on Peroxisome Proliferator-Activated Receptor α
To CHO cells cultured in a Dulbecco-modified Eagle's medium containing 10% delipid fetal calf serum (FCS/DMEM), receptor plasmid that expresses fused protein of DNA-binding domain being transcription factor of yeast with ligand-binding domain of human type PPARα (Biochemistry, 1993, 32, 5598), its reporter plasmid (STRATAGENE Corp.) and luciferase plasmid of Renilla (Promega Corp.) as internal standard were cotransfected with lipofectamine in the serum-free state. Thereafter, testing compound was added in the 10% SFCS/DMEM and both luciferase activities were measured after 24 hours, which were corrected with internal standard.

Row | Compound | melting point [°C] | EC50 [1] [µM]
1 | CCCCC/C=C\C/C=C\C=C\[C@@H](O)C/C=C\CCCC(=O)O [(8S) HETE, reference compound] | – | 1.3
2 | COc1ccc(CC(OC)C(=O)O)cc1NC(=O)Cc1ccc(C(F)(F)F)cc1 (stereo not shown) [Example 39, 2-Methoxy-3-[4-methoxy-3-[2-[4-(trifluoromethyl)phenyl]acetylamino]phenyl]propanoic acid] | 124 to 125 | –
3 | COc1ccc(CCC(=O)O)cc1NC(=O)Cc1ccc(-c2ccccc2)cc1 [Example 44] | 177 | 0.13
4 | CCC(Cc1ccc(OC)c(NC(=O)Cc2ccc(OCc3ccccc3)cc2)c1)C(=O)O (stereo not shown) [Example 46] | – | 0.05

Results, then the molecule that gave them:

Row | melting point [°C] | EC50 [1] [µM] | Compound
5 | 121 to 123 | – | CCC(Cc1ccc(OC)c(CC(=O)Nc2ccc(C(F)(F)F)cc2)c1)C(=O)O (single isomer, unassigned; (-)) [Example 121 (−), (−)-2-ethyl-3-[4-methoxy-3-[[N-[4-(trifluoromethyl)phenyl]carbamoyl]methyl]-phenyl]propanoic acid]
6 | – | 0.16 | COc1ccc(CC(OC)C(=O)O)cc1NC(=O)Cc1ccc(Oc2ccccc2)cc1 (stereo not shown) [Example 70]
7 | 136 to 137 | 0.015 | CCC(Cc1ccc(OC)c(CC(=O)Nc2ccc(C(F)(F)F)cc2)c1)C(=O)O (stereo not shown) [Example 88, 2-Ethyl-3-[4-methoxy-3-[[N-[4-(trifluoromethyl)phenyl]carbamoyl]methyl]phenyl]propanoic acid]
8 | 64 to 66 | – | CCC(Cc1ccc(OC)c(OCCc2ccc(C(F)(F)F)cc2)c1)C(=O)O (stereo not shown) [Example 120, 2-Ethyl-3-[4-methoxy-3-[2-[4-(trifluoromethyl)phenyl]ethoxy]phenyl]propanoic acid]
